The source of these data is PMC3151248, “High-Throughput Identification of Potential Minor Histocompatibility Antigens by MHC Tetramer-Based Screening: Feasibility and Limitations” (PLoS ONE, 2011).

The experiment relates to pMHC tetramer positive T-cell lines. To be noted: 18 h.
[1] abbreviates: read-out: IC50, peptide concentration required for T-cell recognition (IFN γ production), HLA-A2+ T2 cells pulsed with peptide, 10-fold dilution steps from 10ug/ml, IFN γ ELISA, value given for the group of cell lines.

The structures appear in SMILES notation. Like-named read-outs stand apart in the source and are kept apart here. Peptide text beside a SMILES is read from it.

Experimental: To examine the ligand sensitivity of the generated peptide specific cell lines, INF-γ production was measured after stimulation with T2 cells that were loaded with a range of peptide concentrations (Figure 4). In this assay (performed for 8 representative cell lines), peptide concentrations required for T-cell recognition were compared to those required for a previously identified T-cell clone that is specific for the HMHA-1H epitope.
HLA A2^+ T2 cells were pulsed with specific MiHA peptide. Peptide concentrations were titrated in 10-fold dilution steps starting from 10ug/ml. T-cell reactivity was analyzed by cytokine secretion in a standard IFN γ ELISA. Data are presented as cytokine concentration. Shown are eight representative generated T-cell lines and a high affinity control clone specific for HMHA-1H (open square).
MiHA specific T-cell lines (1×10^4) were stimulated with HLA-A2^+ T2 cells, EBV-LCLs or T-cell blasts (2,5×10^4) in 96 well plates for 18 h at 37°C and 5% CO2. Peptide pulsing was performed by incubating stimulator cells for 1 h with synthetic peptides (1 µg/ml) in IMDM containing 2% FCS and cells were washed twice before use. Cytokine release was measured by IFN γ ELISA (Sanquin) according to the manufacturer's instructions.

Regarding `CC[C@H](C)[C@H](NC(=O)[C@H](CC(=O)O)NC(=O)[C@H](CCSC)NC(=O)CNC(=O)[C@H](Cc1ccccc1)NC(=O)[C@H](CC(C)C)NC(=O)[C@H](CCC(=O)O)NC(=O)[C@H](Cc1c[nH]cn1)NC(=O)[C@H](CC(C)C)NC(=O)[C@@H](NC(=O)[C@@H](N)CCCCN)C(C)C)C(=O)O` [P91 FLT3KVL] (H-KVLHELFGMDI-OH), under setting [1], the IC50 is around 5 nM.

Turning to `CC(C)C[C@H](NC(=O)[C@H](CC(C)C)NC(=O)[C@H](CC(=O)O)NC(=O)[C@H](CC(=O)O)NC(=O)[C@H](Cc1c[nH]cn1)NC(=O)[C@H](CC(C)C)NC(=O)[C@@H](N)C(C)C)C(=O)N[C@@H](CCC(=O)O)C(=O)N[C@@H](C)C(=O)O` [P46 HMHA1VLH] (H-VLHDDLLEA-OH), the IC50 is around 0.05 nM.

`CC[C@H](C)[C@H](NC(=O)[C@@H](N)CO)C(=O)N[C@@H](CCC(N)=O)C(=O)N[C@@H](CC(N)=O)C(=O)N[C@@H](Cc1ccc(O)cc1)C(=O)N[C@@H](Cc1c[nH]cn1)C(=O)N1CCC[C@H]1C(=O)N[C@@H](Cc1ccccc1)C(=O)N[C@@H](C)C(=O)O` [P37 DOCK2SIQ] (H-SIQNYHPFA-OH) gave an IC50 of around 500 nM.

`CC(C)C[C@H](NC(=O)[C@@H]1CCCN1C(=O)[C@H](CC(C)C)NC(=O)[C@H](C)NC(=O)[C@H](C)NC(=O)[C@H](Cc1c[nH]c2ccccc12)NC(=O)[C@H](CC(C)C)NC(=O)[C@@H]1CCCN1C(=O)[C@H](CC(C)C)NC(=O)[C@H](CC(C)C)NC(=O)[C@@H](N)CCCNC(=N)N)C(=O)O` [P104 ZFP36L2RLL] (H-RLLPLWAALPL-OH): the IC50 is around 500 nM.

With `CSCC[C@H](NC(=O)[C@@H](N)CCCCN)C(=O)N[C@@H](CC(N)=O)C(=O)N[C@H](C(=O)N[C@@H](Cc1ccccc1)C(=O)N[C@@H](CC(=O)O)C(=O)N[C@H](C(=O)N[C@@H](CC(N)=O)C(=O)N[C@@H](CC(C)C)C(=O)O)[C@@H](C)O)C(C)C` [P203 ATP2A3KMN] (H-KMNVFDTNL-OH), the IC50 under setting [1] was around 500 nM.

For `CC[C@H](C)[C@H](N)C(=O)N[C@@H](CCSC)C(=O)N[C@@H](C)C(=O)N[C@H](C(=O)N[C@@H](CCC(=O)O)C(=O)N[C@@H](CC(C)C)C(=O)N[C@@H](C)C(=O)N[C@@H](CCC(=O)O)C(=O)N[C@@H](CC(C)C)C(=O)O)[C@@H](C)CC` [P218 MAP4K1IMA] (H-IMAIELAEL-OH), the IC50 was around 0.05 nM.

`CSCC[C@H](NC(=O)[C@@H](N)CO)C(=O)N[C@@H](CS)C(=O)N[C@@H](CCCNC(=N)N)C(=O)N[C@@H](Cc1ccccc1)C(=O)N[C@@H](CO)C(=O)N1CCC[C@H]1C(=O)N[C@@H](CC(C)C)C(=O)N[C@H](C(=O)N[C@@H](CC(C)C)C(=O)O)[C@@H](C)O` [P309 HSPA6SMC] (H-SMCRFSPLTL-OH) displayed an IC50 of around 5 nM.
